Tested on: Transport facilitation protein genes
Assay: DNA chip mRNA expression in yeast, transport facilitation protein genes (Table 5)
Assay type: cell-based, Saccharomyces cerevisiae S288C
How it was run: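 Value is the scanned fluorescence intensity ratio of exposed versus chemical-free cells. Log-phase S288C yeast in YPD at 25° C. received one toxic substance for two hours, dosed to slow growth without killing; Cy3/Cy5-labeled cDNA from oligo-dT-purified mRNA was hybridized to a whole-genome chip at 65° C.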

For COc1cc(CNC(=O)CCCCC=CC(C)C)ccc1O [(12), 8-methyl-N-vanillyl-6-nonenamide], the “The level of expressed mRNA in the presence of chemical substance/The level of expressed mRNA in the absence of chemical substance” value (yeast gene YGR281W) was 2.4, the “The level of expressed mRNA in the presence of chemical substance/The level of expressed mRNA in the absence of chemical substance” value (yeast gene YHL035C) was 1.4 and the “The level of expressed mRNA in the presence of chemical substance/The level of expressed mRNA in the absence of chemical substance” value (yeast gene YHL040C) was 2.0. For the same compound, the “The level of expressed mRNA in the presence of chemical substance/The level of expressed mRNA in the absence of chemical substance” value (yeast gene YHL047C) was 2.6, the “The level of expressed mRNA in the presence of chemical substance/The level of expressed mRNA in the absence of chemical substance” value (yeast gene YHR026W) was 0.7 and the “The level of expressed mRNA in the presence of chemical substance/The level of expressed mRNA in the absence of chemical substance” value (yeast gene YHR092C) was 1.0. For the same compound, the “The level of expressed mRNA in the presence of chemical substance/The level of expressed mRNA in the absence of chemical substance” value (yeast gene YHR094C) was 0.9, the “The level of expressed mRNA in the presence of chemical substance/The level of expressed mRNA in the absence of chemical substance” value (yeast gene YHR175W) was 1.4 and the “The level of expressed mRNA in the presence of chemical substance/The level of expressed mRNA in the absence of chemical substance” value (yeast gene YIL006W) was 0.9. For the same compound, the “The level of expressed mRNA in the presence of chemical substance/The level of expressed mRNA in the absence of chemical substance” value (yeast gene YIL022W) was 0.9, the “The level of expressed mRNA in the presence of chemical substance/The level of expressed mRNA in the absence of chemical substance” value (yeast gene YIL056W) was 1.0 and the “The level of expressed mRNA in the presence of chemical substance/The level of expressed mRNA in the absence of chemical substance” value (yeast gene YIL088C) was 0.9. For the same compound, the “The level of expressed mRNA in the presence of chemical substance/The level of expressed mRNA in the absence of chemical substance” value (yeast gene YJL034W) was 1.6, the “The level of expressed mRNA in the presence of chemical substance/The level of expressed mRNA in the absence of chemical substance” value (yeast gene YJL212C) was 0.4 and the “The level of expressed mRNA in the presence of chemical substance/The level of expressed mRNA in the absence of chemical substance” value (yeast gene YJL219W) was 1.1. The “The level of expressed mRNA in the presence of chemical substance/The level of expressed mRNA in the absence of chemical substance” value (yeast gene YJR077C) was 1.0, the “The level of expressed mRNA in the presence of chemical substance/The level of expressed mRNA in the absence of chemical substance” value (yeast gene YJR106W) was 0.9 and the “The level of expressed mRNA in the presence of chemical substance/The level of expressed mRNA in the absence of chemical substance” value (yeast gene YJR121W) was 0.8. For the same compound, the “The level of expressed mRNA in the presence of chemical substance/The level of expressed mRNA in the absence of chemical substance” value (yeast gene YKL016C) was 1.0, the “The level of expressed mRNA in the presence of chemical substance/The level of expressed mRNA in the absence of chemical substance” value (yeast gene YKL146W) was 1.1 and the “The level of expressed mRNA in the presence of chemical substance/The level of expressed mRNA in the absence of chemical substance” value (yeast gene YKR039W) was 1.5. For the same compound, the “The level of expressed mRNA in the presence of chemical substance/The level of expressed mRNA in the absence of chemical substance” value (yeast gene YKR067W) was 1.0, the “The level of expressed mRNA in the presence of chemical substance/The level of expressed mRNA in the absence of chemical substance” value (yeast gene YLL028W) was 1.3 and the “The level of expressed mRNA in the presence of chemical substance/The level of expressed mRNA in the absence of chemical substance” value (yeast gene YLL055W) was 0.7. The “The level of expressed mRNA in the presence of chemical substance/The level of expressed mRNA in the absence of chemical substance” value (yeast gene YLR081W) was 1.0, the “The level of expressed mRNA in the presence of chemical substance/The level of expressed mRNA in the absence of chemical substance” value (yeast gene YLR295C) was 0.5 and the “The level of expressed mRNA in the presence of chemical substance/The level of expressed mRNA in the absence of chemical substance” value (yeast gene YLR348C) was 0.9. For the same compound, the “The level of expressed mRNA in the presence of chemical substance/The level of expressed mRNA in the absence of chemical substance” value (yeast gene YLR378C) was 1.2, the “The level of expressed mRNA in the presence of chemical substance/The level of expressed mRNA in the absence of chemical substance” value (yeast gene YML116W) was 0.5 and the “The level of expressed mRNA in the presence of chemical substance/The level of expressed mRNA in the absence of chemical substance” value (yeast gene YMR011W) was 0.8. For the same compound, the “The level of expressed mRNA in the presence of chemical substance/The level of expressed mRNA in the absence of chemical substance” value (yeast gene YMR162C) was 0.7, the “The level of expressed mRNA in the presence of chemical substance/The level of expressed mRNA in the absence of chemical substance” value (yeast gene YMR203W) was 0.7 and the “The level of expressed mRNA in the presence of chemical substance/The level of expressed mRNA in the absence of chemical substance” value (yeast gene YNL055C) was 1.7. For the same compound, the “The level of expressed mRNA in the presence of chemical substance/The level of expressed mRNA in the absence of chemical substance” value (yeast gene YNL259C) was 0.7, the “The level of expressed mRNA in the presence of chemical substance/The level of expressed mRNA in the absence of chemical substance” value (yeast gene YNR072W) was 1.0 and the “The level of expressed mRNA in the presence of chemical substance/The level of expressed mRNA in the absence of chemical substance” value (yeast gene YOL119C) was 0.9. The “The level of expressed mRNA in the presence of chemical substance/The level of expressed mRNA in the absence of chemical substance” value (yeast gene YOL156W) was 0.9, the “The level of expressed mRNA in the presence of chemical substance/The level of expressed mRNA in the absence of chemical substance” value (yeast gene YOL163W) was 1.0 and the “The level of expressed mRNA in the presence of chemical substance/The level of expressed mRNA in the absence of chemical substance” value (yeast gene YOR035C) was 1.1. For the same compound, the “The level of expressed mRNA in the presence of chemical substance/The level of expressed mRNA in the absence of chemical substance” value (yeast gene YOR130C) was 0.9, the “The level of expressed mRNA in the presence of chemical substance/The level of expressed mRNA in the absence of chemical substance” value (yeast gene YOR153W) was 4.0 and the “The level of expressed mRNA in the presence of chemical substance/The level of expressed mRNA in the absence of chemical substance” value (yeast gene YOR270C) was 0.7. The “The level of expressed mRNA in the presence of chemical substance/The level of expressed mRNA in the absence of chemical substance” value (yeast gene YOR273C) was 0.8, the “The level of expressed mRNA in the presence of chemical substance/The level of expressed mRNA in the absence of chemical substance” value (yeast gene YOR316C) was 1.1 and the “The level of expressed mRNA in the presence of chemical substance/The level of expressed mRNA in the absence of chemical substance” value (yeast gene YOR328W) was 1.8. For the same compound, the “The level of expressed mRNA in the presence of chemical substance/The level of expressed mRNA in the absence of chemical substance” value (yeast gene YOR332W) was 1.0, the “The level of expressed mRNA in the presence of chemical substance/The level of expressed mRNA in the absence of chemical substance” value (yeast gene YOR348C) was 0.7 and the “The level of expressed mRNA in the presence of chemical substance/The level of expressed mRNA in the absence of chemical substance” value (yeast gene YPL036W) was 0.5. For the same compound, the “The level of expressed mRNA in the presence of chemical substance/The level of expressed mRNA in the absence of chemical substance” value (yeast gene YPL134C) was 0.8, the “The level of expressed mRNA in the presence of chemical substance/The level of expressed mRNA in the absence of chemical substance” value (yeast gene YPL265W) was 0.9 and the “The level of expressed mRNA in the presence of chemical substance/The level of expressed mRNA in the absence of chemical substance” value (yeast gene YPL271W) was 0.8. The “The level of expressed mRNA in the presence of chemical substance/The level of expressed mRNA in the absence of chemical substance” value (yeast gene YPR124W) was 0.8, the “The level of expressed mRNA in the presence of chemical substance/The level of expressed mRNA in the absence of chemical substance” value (yeast gene YPR192W) was 0.5 and the “The level of expressed mRNA in the presence of chemical substance/The level of expressed mRNA in the absence of chemical substance” value (yeast gene YPR194C) was 0.7.
